Converted amounts (≈) assume the structure as drawn. Blank lines part the entries; values can stand above or below the molecule they belong to.
Tests used:
[1] = target: T1, Metallo-beta-lactamase type 2 (Bacteria, UniProt C7C422); assay: Inhibition of bacterial NDM-1 (unknown origin) using nitrocefin as substrate incubated for 10 mins followed by substrate addition by absorbance based assay
[2] = target: Beta-lactamase VIM-1 (Bacteria, UniProt Q8GDC1); assay: Binding affinity to bacterial Metallo-beta-lactamase VIM-1 (unknown origin) assessed as dissociation constant
[3] = Cytotoxicity against human HepG2 cells incubated for 24 hrs by AlamarBlue-based assay; assay type: toxicity, cell-based
[4] = Inhibition of bacterial Metallo-beta-lactamase GIM-1 using nitrocefin as substrate; set-up: species or system Bacteria
[5] = Inhibition of bacterial Metallo-beta-lactamase VIM-2 (unknown origin); set-up: species or system Bacteria
[6] = test system: Bacteria; assay: Inhibition of bacterial Metallo-beta-lactamase VIM-5 (unknown origin) at 100 uM relative to control
[7] = target: Beta-lactamase VIM-1 (Bacteria) (UniProt Q8GDC1); assay: Inhibition of bacterial Metallo-beta-lactamase VIM-1 (unknown origin) at 100 uM relative to control
[8] = Binding affinity to bacterial Metallo-beta-lactamase VIM-2 (unknown origin) expressed in Escherichia coli BL21(DE3) cells assessed as inhibition constant; set-up: species or system Bacteria
[9] = test system: HeLa; assay: Cytotoxicity against human HeLa cells at >1000 uM incubated for 24 hrs by Celltiter assay relative to control; assay type: toxicity, cell-based
[10] = test system: Escherichia coli; assay: Synergistic activity against IMP-1 producing Escherichia coli NUBL-24 infected in CD1 mouse assessed as death rescue at 100 mg/kg, ip measured for 7 days in presence of meropenem relative to control; assay type: functional; conditions: time 7 day
[11] = test system: Escherichia coli; assay: Synergistic activity against IMP-1 producing engineered Escherichia coli NUBL-24 assessed as fractional inhibition concentration index incubated for 16 to 20 hrs in presence of meropenem by CLSI-based microdilution method; assay type: functional; conditions: time 16-20 hrs
[12] = Binding affinity to bacterial Metallo-beta-lactamase IMP-1 (unknown origin) expressed in Escherichia coli BL21(DE3) cells assessed as inhibition constant; set-up: species or system Bacteria
[13] = test system: Klebsiella pneumoniae; assay: Synergistic activity against NDM-1/VIM-1-producing Klebsiella pneumoniae MS5674 assessed as fractional inhibition concentration index in presence of meropenem by checkerboard assay; assay type: functional
[14] = target: T1, Metallo-beta-lactamase type 2; assay: Binding affinity to bacterial NDM-1 (unknown origin) assessed as inhibition constant
[15] = Cytotoxicity against human HeLa cells; assay type: toxicity, cell-based
[16] = target: T1, Metallo-beta-lactamase type 2; assay: Inhibition of bacterial NDM-1 (unknown origin)
[17] = test system: Escherichia coli; assay: Antibacterial activity against NDM-1-producing Escherichia coli assessed as fold reduction in MIC in presence of meropenem CLSI-based broth microdilution method; assay type: functional
[18] = test system: Escherichia coli; assay: Antibacterial activity against IMP-type producing Escherichia coli clinical isolate in presence of imipenem by CLSI-based broth microdilution method; assay type: functional
[19] = Inhibition of His-tagged recombinant bacterial Metallo-beta-lactamase IMP-1 (unknown origin) expressed in Escherichia coli BL21 star cells; set-up: species or system Bacteria
[20] = test system: Klebsiella pneumoniae; assay: Antibacterial activity against VIM-1-producing Klebsiella pneumoniae NCTC 13440 clinical isolate by CLSI-based broth microdilution method; assay type: functional
[21] = Cytotoxicity against human HepG2 cells incubated for 24 hrs by CellTiter-Glo assay; assay type: toxicity, cell-based
[22] = target: Metallo-beta-lactamase VIM-2 (Pseudomonas aeruginosa, UniProt D1MEN9); assay: Inhibition of N-terminal His-tagged recombinant Pseudomonas aeruginosa Metallo-beta-lactamase VIM-2 expressed in Escherichia coli BL21 star cells using nitrocefin as substrate by absorbance based assay
[23] = test system: Escherichia coli; assay: Antibacterial activity against IMP-type producing Escherichia coli clinical isolate in presence of meropenem by CLSI-based broth microdilution method; assay type: functional
[24] = test system: Klebsiella pneumoniae; assay: Antibacterial activity against NDM-1-producing Klebsiella pneumoniae clinical isolate assessed as fold reduction in MIC in presence of meropenem CLSI-based broth microdilution method; assay type: functional
[25] = test system: Escherichia coli; assay: Synergistic activity against NDM-1-producing Escherichia coli RC0089 assessed as fractional inhibition concentration index in presence of meropenem by CLSI-based assay; assay type: functional
[26] = Binding affinity to bacterial Metallo-beta-lactamase IMP-1 (unknown origin) using FC5 as substrate preincubated for 15 min followed by substrate addition by fluorescence based assay; set-up: species or system Bacteria
[27] = test system: Escherichia coli; assay: Antibacterial activity against NDM-1-producing Escherichia coli RC0089 incubated for 16 to 20 hrs in presence of meropenem CLSI-based assay; assay type: functional; conditions: time 16-20 hrs
[28] = Inhibition of Acinetobacter baumannii recombinant NDM-1 using nitrocefin as substrate preincubated for 10 mins followed by substrate addition by spectrophotometric analysis
[29] = test system: Acinetobacter baumannii; assay: Antibacterial activity against MBL-producing Acinetobacter baumannii assessed as diameter of inhibition zone in presence of imipenem; assay type: functional
[30] = Inhibition of Acinetobacter baumannii Metallo-beta-lactamase IMP-1

T1 sequence (C7C422 whole entry): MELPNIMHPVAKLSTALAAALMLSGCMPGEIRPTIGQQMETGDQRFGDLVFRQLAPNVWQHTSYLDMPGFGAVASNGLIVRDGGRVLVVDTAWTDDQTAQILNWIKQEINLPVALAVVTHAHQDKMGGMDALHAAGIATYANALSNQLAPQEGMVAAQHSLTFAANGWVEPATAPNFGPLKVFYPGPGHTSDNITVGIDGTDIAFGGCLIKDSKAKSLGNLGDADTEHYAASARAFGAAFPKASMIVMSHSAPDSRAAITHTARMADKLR

Structure (SMILES): O=C1C(SCCCS)CCN1c1ccccc1 (configuration not stated)
- Kd [2]: < 0.88 µM

Structure (SMILES): CN(C[C@H](O)[C@@H](O)[C@H](O)[C@H](O)CO)C(=O)c1ccc(CN(Cc2ccccn2)Cc2ccccn2)nc1
- IC50 at 24 h [3]: > 100 µM

Structure (SMILES): COP(=O)(CCSC(C)=O)NCc1ccccn1 (configuration not stated)
- IC50 [4]: 86 µM
- IC50 [5]: 2.2 µM

Structure (SMILES): CCc1c(C(=O)O)c(S(N)(=O)=O)c(CC)n1C
- Ki [8]: 0.02 µM
- Activity [9]: > 50%
- Activity [10]: 100%
- fractional inhibitory concentration index (FICI) [11]: 0.26
- Ki [12]: 0.26 µM
- fractional inhibitory concentration index (FICI) [13]: 0.05

Structure (SMILES): CN1CCN(C(=S)N/N=C/c2ccccc2O)CC1
- Ki [14]: 440 µM
- IC50 [15]: > 64 µg/mL
- IC50 [16]: 0.302 µM

Structure (SMILES): CC(C)c1cccc2c(-c3ccc(F)cc3)c(C(=O)O)[nH]c12
- fractional inhibitory concentration index (FICI) [25]: 0.258
- IC50 [26]: 0.14 µM
- MIC [27]: 16 µg/mL

Structure (SMILES): Oc1ccccc1/C=N/c1cccnc1/N=C/c1ccccc1O
- diameter of the inhibition zone (DIZ) [29]: 23 mm
- IC50 [30]: 93.7 µM

Continued, in another order:

- IC50 [1]: 0.38 µM
Structure (SMILES): O=C(O)c1cccc2oc(-c3ccc4cc(OCc5ccccc5)ccc4c3O)nc12

- inhibition [6]: 33%
- inhibition [7]: 23%
- IC50 [5]: 38.4 µM
Structure (SMILES): Brc1ccc(-c2nnc3n2CCCS3)cc1

- MIC [18]: 0.25 µg/mL
- IC50 [19]: 0.43 µM
- MIC50 [20]: 0.06 µg/mL (≈ 0.213 µM)
- IC50 [22]: 32.4 µM
- MIC [23]: 0.03 µg/mL
Structure (SMILES): Nc1ccc(-c2ccn(S(N)(=O)=O)c2C(=O)O)cn1
- fold change (FC) [17]: 32
- CC50 at 24 h [21]: > 256 µg/mL
- fold change (FC) [24]: 32

- IC50 [1]: 7.6 µM
Structure (SMILES): O=C(Cc1ccccc1)N[C@@H]1C(=O)N2C(C(=O)O)=C(CSc3cccc[n+]3[O-])CS[C@H]12

- IC50 [28]: 24 µM
Structure (SMILES): CC1=C(CO)C(=O)O[C@@H]([C@@H](C)[C@H]2CC[C@H]3[C@@H]4C[C@H]5O[C@]56[C@@H](O)C=CC(=O)[C@]6(C)[C@H]4CC[C@]23C)C1 [WITHAFERIN A]
